Key:
[1] = test system: Mus musculus; test: In vivo photosensitizing efficacy in RIF cells of C3H mouse at 1 umol/kg 90 days post-dose; format: functional
[2] = test system: RIF-1; test: Photosensitizing efficacy in RIF cells at 0.6-2.5 uM and light dose of 0-10 J/cm2 by MTT assay; format: functional, cell-based; settings: Mus musculus

CC[C@H]1c2cc3nc4c(c5[nH]c(cc6[nH]c(cc(n2)[C@@H]1C)c(C(C)NCc1cc(C(F)(F)F)cc(C(F)(F)F)c1)c6C)[C@@H](C)[C@@H]5CCC(=O)OC)C(=O)N(Cc1cc(C(F)(F)F)cc(C(F)(F)F)c1)C(=O)C4=C3C (some centres not stated)
Activity [1]: 60%
Activity [2]: Dose-dependent effect

Source: ChEMBL document CHEMBL1138160, “In vivo stability and photodynamic efficacy of fluorinated bacteriopurpurinimides derived from bacteriochlorophyll-a” (2006)
